According to the supplement of paper PMC10307832:

Assays:
Assay in all cases: relative viability (nuclei count vs DMSO), 5 days (fraction); higher = more cells survive
[1] = compound: CC1CC(=O)N(C2=CN=C(N=C2N1C3CCCC3)NC4=C(C=C(C=C4)C(=O)NC5CCN(CC5)C)OC)C [NPK76-II-72-1] + O=C(CCCCCCC(=O)Nc1ccccc1)NO [Vorinostat] (partner 1 µM)
Outline: (§1)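 After 5 days of treatment, lung cancer cells in 1536-well plates were fixed and stained in a single step (final 0.05% Triton X-100, 1% formaldehyde, 1 ug/ml Hoechst) and their nuclei counted on 4× images. Treatment had been applied by pin tool the day after seeding as one drug alone or as a fixed anchor-drug dose with five library-drug doses (not always all listed) in √10 steps. Relative viability is the nuclei count of treated wells divided by that of vehicle wells, and values are medians of duplicate plates.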

BI-2536 + Dasatinib = compound: CC[C@@H]1C(=O)N(C)c2cnc(Nc3ccc(C(=O)NC4CCN(C)CC4)cc3OC)nc2N1C1CCCC1 [BI-2536] + Cc1nc(Nc2ncc(C(=O)Nc3c(C)cccc3Cl)s2)cc(N2CCN(CCO)CC2)n1 [Dasatinib] (partner 0.075 µM)
Outline: as §1

BI-2536 + Decitabine = compound: CC[C@@H]1C(=O)N(C)c2cnc(Nc3ccc(C(=O)NC4CCN(C)CC4)cc3OC)nc2N1C1CCCC1 [BI-2536] + Nc1ncn([C@H]2C[C@H](O)[C@@H](CO)O2)c(=O)n1 [Decitabine] (partner 2 µM)
Outline: as §1

BI-2536 + Vorinostat = compound: CC[C@@H]1C(=O)N(C)c2cnc(Nc3ccc(C(=O)NC4CCN(C)CC4)cc3OC)nc2N1C1CCCC1 [BI-2536] + O=C(CCCCCCC(=O)Nc1ccccc1)NO [Vorinostat] (partner 1 µM)
Outline: as §1

Cell Line | relative viability ([1]; first compound 0.01 µM) | relative viability ([1]; first compound 0.03162 µM) | relative viability ([1]; first compound 0.1 µM) | relative viability ([1]; first compound 0.3162 µM) | relative viability ([1]; first compound 1 µM) | relative viability (BI-2536 + Dasatinib; first compound 0.01 µM) | relative viability (BI-2536 + Dasatinib; first compound 0.03162 µM) | relative viability (BI-2536 + Dasatinib; first compound 0.1 µM) | relative viability (BI-2536 + Dasatinib; first compound 0.3162 µM) | relative viability (BI-2536 + Dasatinib; first compound 1 µM) | relative viability (BI-2536 + Decitabine; first compound 0.01 µM) | relative viability (BI-2536 + Decitabine; first compound 0.03162 µM) | relative viability (BI-2536 + Decitabine; first compound 0.1 µM) | relative viability (BI-2536 + Decitabine; first compound 0.3162 µM) | relative viability (BI-2536 + Decitabine; first compound 1 µM) | relative viability (BI-2536 + Vorinostat; first compound 0.01 µM) | relative viability (BI-2536 + Vorinostat; first compound 0.03162 µM) | relative viability (BI-2536 + Vorinostat; first compound 0.1 µM) | relative viability (BI-2536 + Vorinostat; first compound 0.3162 µM) | relative viability (BI-2536 + Vorinostat; first compound 1 µM)
NCI-H2126 | 0.761 | 0.798 | 0.846 | 0.713 | 0.828 | 0.659 | 0.58 | 0.294 | 0.26 | 0.224 | 0.547 | 0.591 | 0.492 | 0.247 | 0.244 | 0.8 | 0.832 | 0.243 | 0.218 | 0.177
NCI-H3122 | 0.943 | 0.923 | 1.05 | 1.05 | 1.05 | 0.813 | 0.878 | 0.158 | 0.0979 | 0.104 | 0.386 | 0.508 | 0.392 | 0.151 | 0.159 | 0.928 | 0.779 | 0.179 | 0.149 | 0.151
NCI-H1975 | 0.676 | 0.736 | 0.662 | 0.694 | 0.712 | 0.374 | 0.334 | 0.194 | 0.0936 | 0.0979 | 0.321 | 0.372 | 0.276 | 0.172 | 0.14 | 0.727 | 0.593 | 0.326 | 0.181 | 0.158
NCI-H1944 | 0.49 | 0.583 | 0.508 | 0.485 | 0.646 | 0.218 | 0.232 | 0.177 | 0.126 | 0.132 | 0.454 | 0.444 | 0.399 | 0.168 | 0.192 | 0.623 | 0.623 | 0.237 | 0.139 | 0.154
LU99A | 0.437 | 0.492 | 0.62 | 0.535 | 0.528 | 0.47 | 0.593 | 0.178 | 0.188 | 0.159 | 0.796 | 1.02 | 0.717 | 0.198 | 0.25 | 0.406 | 0.405 | 0.151 | 0.162 | 0.163
SW 1573 | 0.787 | 0.916 | 0.637 | 0.532 | 0.831 | 0.563 | 0.222 | 0.0892 | 0.0839 | 0.0938 | 0.473 | 0.257 | 0.095 | 0.0944 | 0.0866 | 0.677 | 0.437 | 0.101 | 0.0801 | 0.113
NCI-H2347 | 0.744 | 0.588 | 0.656 | 0.641 | 0.603 |  | 0.293 | 0.285 | 0.278 | 0.167 | 0.595 | 0.736 | 0.589 | 0.506 | 0.414 | 0.509 | 0.591 | 0.456 | 0.436 | 0.336
NCI-H2009 | 0.696 | 0.713 | 0.705 | 0.728 | 0.77 | 0.256 | 0.248 | 0.169 | 0.137 | 0.0971 | 0.4 | 0.337 | 0.324 | 0.193 | 0.169 | 0.745 | 0.689 | 0.373 | 0.193 | 0.152
HCC-15 | 0.785 | 0.914 | 0.814 | 0.767 | 0.91 | 0.557 | 0.417 | 0.192 | 0.112 | 0.102 | 0.652 | 0.504 | 0.246 | 0.124 | 0.151 | 0.675 | 0.769 | 0.615 | 0.137 | 0.141
HCC-44 | 1.08 | 1.22 | 1.11 | 1.09 | 1.1 |  |  |  |  |  | 1.01 | 0.974 | 0.843 | 0.332 | 0.298 | 1.19 | 1.01 | 0.847 | 0.346 | 0.278
COR-L23 | 0.408 | 0.519 | 0.408 | 0.427 | 0.48 | 0.459 | 0.491 | 0.117 | 0.107 | 0.0593 | 0.424 | 0.359 | 0.149 | 0.104 | 0.13 | 0.438 | 0.281 | 0.135 | 0.0945 | 0.0882
HCC-78 | 0.456 | 0.461 | 0.463 | 0.418 | 0.499 | 0.454 | 0.374 | 0.416 | 0.25 | 0.17 | 0.678 | 0.692 | 0.694 | 0.363 | 0.331 | 0.421 | 0.49 | 0.379 | 0.268 | 0.27
NCI-H727 | 1.23 | 1.33 | 1.2 | 1.22 | 1.29 | 0.442 | 0.312 | 0.319 | 0.322 | 0.227 | 0.819 | 0.841 | 0.849 | 0.477 | 0.372 | 1.12 | 1.11 | 0.797 | 0.513 | 0.4
NCI-H2228 | 0.543 | 0.608 | 0.587 | 0.589 | 0.578 | 0.448 | 0.372 | 0.116 | 0.0877 | 0.0886 |  |  |  |  |  | 0.823 | 0.468 | 0.106 | 0.134 | 0.0804
NCI-H1648 | 0.455 | 0.536 | 0.319 | 0.348 | 0.437 |  |  |  |  |  | 0.536 | 0.451 | 0.447 | 0.195 | 0.29 | 0.331 | 0.596 | 0.264 | 0.189 | 0.21
NCI-H1563 |  |  |  |  |  | 0.47 | 0.498 | 0.449 | 0.361 | 0.331 |  |  |  |  |  |  |  |  |  | 
A549 |  |  |  |  |  |  |  |  |  |  | 0.26 | 0.315 | 0.246 | 0.0414 | 0.0226 |  |  |  |  | 
NCI-H1623 |  |  |  |  |  | 0.485 | 0.519 | 0.571 | 0.595 | 0.281 |  |  |  |  |  |  |  |  |  | 
IA-LM | 1.1 | 0.923 | 0.852 | 1.03 | 1.1 |  |  |  |  |  |  |  |  |  |  | 1.07 | 1.26 | 0.692 | 0.0844 | 0.0605
CAL-12T | 0.532 | 0.798 | 0.687 | 0.812 | 0.688 | 0.387 | 0.287 | 0.0978 | 0.121 | 0.0997 |  |  |  |  |  | 0.817 | 0.695 | 0.278 | 0.147 | 0.129
